Reference: the METLIN SMRT retention time set (Domingo-Almenara et al. 2019)

Experiment: gradient 5% acetonitrile 3 min, to 50% in 2 min, to 85% in 15 min, held 3 min, 100 µL/min
Details: column: Zorbax Extend-C18 2.1 x 50 mm; eluents: water / acetonitrile, 0.1% formic acid
In short: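 Over 3 months, pure standards in mixtures of ~100 molecules were run by HPLC coupled to a quadrupole time-of-flight mass spectrometer in positive and negative ionization mode. The column was a Zorbax Extend-C18 (2.1 × 50 mm, 1.8 μm) at 100 μL/min, eluted with water and acetonitrile each holding 0.1% formic acid, with 40 μL dead and 900 μL dwell volumes. Retention time was determined from adduct peaks chosen by software and checked manually.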

SMILES | RP-LC retention time [s]
CCN(CC)C(=O)c1cnc2snc(C)c2c1N1CCC(C(=O)Nc2cc(C)c(Cl)cc2OC)CC1 | 1070
Cc1ccc(S(=O)(=O)N2CCN(c3cc(C)nc(NC4CCCCC4)n3)CC2)cc1 | 811
CC(C)n1c(=O)c(NCc2ccc(N3CCOCC3)cc2)nc2ccncc21 | 606
CCn1nccc1C(=O)N1CCCN(C2=NS(=O)(=O)C(c3ccccc3)=C2C)CC1 | 714
O=C(Nc1cc(-c2ccccn2)no1)c1ccoc1 | 713
O=C(NCCCN1CCOCC1)c1csc(N2CCN(c3ccccc3)CC2)n1 | 654
O=S(=O)(c1cccc2nsnc12)N1CC[C@@H]2COCCN(Cc3cccnc3)[C@@H]2C1 | 615
O=C(c1cccnc1)N1CCC(n2nc(-c3ccsc3)ccc2=O)CC1 | 650
CCn1ccc(C(=O)NC(C)C)n1 | 642
CCc1cccc(NS(=O)(=O)c2c[nH]c3ncccc23)c1 | 762
Cc1nnc(-c2ccc3c(c2)OCO3)o1 | 706
Cc1ccnc(NS(=O)(=O)c2ccc(NC(=O)c3nc(-c4cnccn4)no3)cc2)n1 | 608
O=C(Nc1ncnc2sccc12)C1COc2ccccc2O1 (centres undefined) | 718
O=C(c1ccccc1F)N1CCC(CNS(=O)(=O)c2ccc(C(F)(F)F)cc2)CC1 | 847
COCCC(=O)N1CCC(c2noc(C3CC3)n2)C1 (centres undefined) | 627
CCOC(=O)c1cccc(NC(=O)c2sccc2S(=O)(=O)N(C)c2ccc(OCC)cc2)c1 | 1220
O=C(Nc1nccs1)C1CCN(C(=O)C2COc3ccccc3O2)CC1 (centres undefined) | 716
CC1CCCCN1CCNC(=O)c1c2c(cn(-c3ccc(Cl)cc3)c1=O)C(=O)CC(C)(C)C2 (centres undefined) | 710
CCCn1cc(CCNS(=O)(=O)c2cccc3nsnc23)c2cccnc21 | 791
COc1cccc(Cn2nc3c(S(=O)(=O)N4CCCCCC4)cccn3c2=O)c1 | 918
COC(=O)C(C)n1cccc1-c1nc(-c2ccncc2)no1 (centres undefined) | 840
c1cc(CN2CCCCC2)ccc1CC1CCNCC1 | 528
CCn1c(=O)sc2cc(S(=O)(=O)N3CCC(C(=O)Nc4nc(C)cs4)CC3)ccc21 | 827

SMILES | RP-LC retention time [s]
Clc1ccc(Cc2nnc3ccc(Cl)nn23)cc1 | 823
O=C(O)c1cc2cccc([N+](=O)[O-])c2[nH]1 | 746
CCC(C)NC(=O)N1CCN(Cc2nc3cc(C(C)(C)C)ccc3o2)CC1 (centres undefined) | 758
Cc1noc(C)c1S(=O)(=O)N1CCC2(CCC(CN(C)Cc3ccncc3)O2)CC1 (centres undefined) | 604
CCCCC1CCC(C(=O)Nc2nc(-c3ccc4c(c3)NC(=O)CO4)cs2)CC1 (centres undefined) | 934
CCN1C(=O)Cc2cc(C(=O)NC3CCCCCC3)ccc21 | 797
COc1cc(Cl)c(NC(=O)C2CCN(S(=O)(=O)c3cn(C(C)C)cn3)CC2)c(OC)c1 | 797
Cc1ccc(-c2nnc(Cc3nc(-c4ccccc4C)no3)o2)cc1C | 842
O=c1[nH]cc(S(=O)(=O)N2CCCC2)c(=O)[nH]1 | 568
CCc1noc(-c2cccnc2N2CCCN(Cc3ccc(Cl)cc3)CC2)n1 | 709
O=C(c1ccc2snnc2c1)N1CCN(c2ccccn2)CC1 | 576
Cc1ccc(C)c(-c2csc(Nc3ccc(Br)cn3)n2)c1 | 1330
CC(=O)Nc1ccc(-n2cnc(C(=O)N3CCC(C(N)=O)CC3)c2)nc1 | 564
CC(C)CCNC(=O)N1CCN(c2ncccc2-c2nnc(C3CC3)o2)CC1 | 765
CCCn1cc(C(=O)NCCN2CCCC2)c2cccnc21 | 589
CCn1cnc(S(=O)(=O)N2CCC(C(=O)Nc3cc(OC)cc(OC)c3)CC2)c1 | 704
O=C(NC1CCCCC1)c1ccc(CN2C(=O)C3CCCN3C(=O)c3ccccc32)cc1 (centres undefined) | 770
CCOCCCNC(=O)C1CCCN(c2ccc(-c3ccc(C)c(C)c3)nn2)C1 (centres undefined) | 687
COc1ccc(Cl)cc1NS(=O)(=O)c1cc2c(s1)CCN(C(=O)C1CC1)C2 | 883
CN(C)c1nccnc1OC1CCN(C(=O)c2ccncc2)C1 (centres undefined) | 553
O=C(Nc1ccc(O)c(C(=O)O)c1)Oc1ccccc1 | 801
CCOc1ccc(-c2csc3c(=O)n(Cc4cccc(Br)c4)cnc23)cc1OCC | 1210

Further lines, results first:

RP-LC retention time [s] | SMILES
732 | COCCNC(=O)c1sc2c(cnc3cc4c(cc32)OCO4)c1-c1ccccc1
1200 | Cc1ccc(-c2coc(-c3ccc(NC(=O)NCc4cccc(F)c4)cc3)n2)c(C)c1
1270 | CCc1nc(-c2ccc(-c3noc(COc4ccc(OC)cc4)n3)cc2)cs1
993 | Cc1ccc(CC(=O)Nc2cc(-c3cccs3)no2)cc1
794 | COc1cc(NC(=O)C(C)Oc2ccc(=O)n(-c3ccc(F)cc3)n2)cc(OC)c1 (centres undefined)
664 | Cn1c(CCNC(=O)c2cccc(C(F)(F)F)c2)nc2cccnc21
936 | O=c1ccc(-c2ccc3c(c2)OCO3)nn1CCc1nc(-c2ccccc2Br)no1
1070 | CCCN1C(=O)c2cc(S(=O)(=O)NC(C)c3ccccc3)ccc2Oc2cccnc21 (centres undefined)
939 | COc1ccc(-c2c(C(=O)Nc3ccc(C(C)=O)cc3)nc3ccccn23)cc1
677 | Cc1cccc2nnc(N3CCC(C(=O)Nc4ccccc4F)CC3)n12
736 | O=C(Nc1cccc(F)c1)C1CCN(S(=O)(=O)c2ccc3[nH]c(=O)ccc3c2)CC1
1190 | COc1ccc(Cn2c(=O)c3sccc3n(Cc3nc(-c4ccc(Cl)c(F)c4)no3)c2=O)cc1
943 | COc1ccc(NC(=O)Cn2c(C)cc(-c3nnc(-c4ccccc4)o3)c2C)cc1F
1230 | Cc1ccc(Nc2c(-c3ccc(Br)cc3)nc3cnccn23)c(Br)c1
805 | COc1ccc2[nH]c(=O)c(CCC(=O)NCc3cccs3)cc2c1
1230 | CC(NC(=O)c1c(O)c2cccnc2n(-c2cccc(F)c2)c1=O)c1ccccc1 (centres undefined)
977 | CN(CCc1noc(-c2ccccc2)n1)C(=O)Nc1cccc(Br)c1
858 | CC(=O)Nc1ccccc1SC(CC(=O)c1ccco1)c1ccc2c(c1)OCO2 (centres undefined)
626 | Cc1nc2ccn(Cc3cccnc3)c(=O)c2cc1C(=O)NCCc1c[nH]c2ccccc12
984 | O=C(CCc1c[nH]c2ccccc12)N1CCc2cc(-c3ccno3)ccc21
836 | CCCN1C(=O)c2cc(C(=O)NCc3ccccc3F)nn2CC1(C)C(=O)NC1CCCC1 (centres undefined)
1140 | COc1ccc(CN2C=C(C(=O)OCc3ccccc3C)C(C)=NS2(=O)=O)cc1

RP-LC retention time [s] | SMILES
581 | CN(C)CCN(Cc1ccco1)C(=O)c1c2c(nc3ccccc13)C(=O)N(C1CCCCC1)C2
980 | CCOc1ccc(NS(=O)(=O)c2cc(C(=O)N3CCN(c4cccc(Cl)c4)CC3)n[nH]2)cc1
785 | CN(C)c1ccc(/C=C/c2ccc3ccccc3n2)cc1
1000 | CC1Cc2ccccc2N1C(=O)Cc1cc(-c2ccc(F)cc2)on1 (centres undefined)
734 | CC1=C(c2ccc(F)cc2)S(=O)(=O)N=C1N1CCCN(C(=O)C2CC2)CC1
984 | COc1ccc(-c2noc(C3CCCN3C(=O)c3sccc3C)n2)cc1 (centres undefined)
547 | Cc1[nH]c(=O)[nH]c(=O)c1CCC(=O)Nc1ccccc1C(N)=O
1160 | Cc1cc(NS(=O)(=O)c2ccc(Nc3nc(-c4ccc(C(C)C)cc4)cs3)cc2)no1
1250 | COc1ccc(-c2noc(Cc3nc(-c4ccc(C)cc4)cs3)n2)cc1
652 | O=C(NCc1cccc(F)c1)N1CCCC(Cn2cnc3cccnc32)C1 (centres undefined)
796 | Cc1c(Cl)cccc1Nc1c(-c2ccc(C(=O)O)cc2)nc2cnccn12
591 | O=C(CSc1nccn1-c1cccc(Cl)c1)Nc1ccccc1C(F)(F)F
916 | Cc1cc(F)ccc1NC(=O)Cn1cccc1-c1nnc(C2CCC2)o1
958 | CCOc1ccccc1NC(=O)N1CCCC(C)(C(=O)NCc2cccc(OC)c2)C1 (centres undefined)
1130 | CN(c1nc(-c2ccc(C(C)(C)C)cc2)nc2ccccc12)C1CCCCC1
954 | Cc1cc(C)c(NC(=O)CN2C(=O)CC(c3cccs3)=Nc3ccccc32)c(C)c1
1180 | COc1ccc(-n2c(=O)c(C(=O)NC(C)c3ccccc3)c(O)c3cccnc32)cc1 (centres undefined)
848 | COc1ccc(CN2C(=O)c3ccccc3C2C(=O)NC2CCCC2)c(OC)c1 (centres undefined)
666 | COc1ccc(NC(=O)C2CCN(c3nnc4ccccn34)CC2)cc1Cl
779 | O=C(CCc1c(-c2ccc(F)cc2)nc2ccccn12)NCc1ccccc1Cl
1320 | C[C@H](NC(=O)C(C)(C)Oc1ccc(C(F)(F)F)cn1)[C@@H](Cc1ccc(Cl)cc1)c1cccc(C#N)c1
750 | CC(NS(=O)(=O)CCCOc1ccc2c(c1)OCO2)c1ccccc1 (centres undefined)
